The values below come from US9243281B2, “Neuroprotective chemicals and methods for identifying and using same” (Board of Regents of The University of Texas System, priority 2013, dated 2016).

In experiment [1] the test system is hippocampal neurogenesis (Dentate Gyrus). Description: in vivo neurogenesis assay (BrdU+ cells in dentate gyrus). Also on record: species or system mice. To be noted: living mice; vehicle (DMSO) 7.3. From the text:
The screen was simple in concept. With help from chemists in the Department of Biochemistry at UTSWMC, we selected 1,000 druglike chemicals from the 250,000 compounds in our high throughput screening center. The compounds were selected to preserve representative chemical diversity of the entire library. They were further selected to enhance the representation of chiral molecules, and to avoid untoward chemical properties such as reactive moieties. The 1,000 molecules were randomly pooled into groups of ten, and each pool was administered directly into the left ventricle of two adult mice. Intracranial delivery was facilitated by stereotactic positioning of a canula fed directly by an Alzet mini-pump containing the mixture of ten chemicals. The drug mixture was administered over a week-long period at concentrations anticipated to deliver mid-nanomolar levels of the ten test compounds. Daily injections of the thymidine analog, bromodeoxyuridine (BrdU), were coadministered in order to monitor the formation of new hippocampal nerve cells. Following compound administration, animals were sacrificed such that brain tissue could be recovered, sectioned and stained with antibodies to BrdU. […]

The target in a further experiment is T1, p70 (NAMPT) (Homo sapiens, UniProt P43490).
T1 construct: endogenous in cells; host or cells: H2122 lung cancer cells
T1 sequence (P43490 whole entry): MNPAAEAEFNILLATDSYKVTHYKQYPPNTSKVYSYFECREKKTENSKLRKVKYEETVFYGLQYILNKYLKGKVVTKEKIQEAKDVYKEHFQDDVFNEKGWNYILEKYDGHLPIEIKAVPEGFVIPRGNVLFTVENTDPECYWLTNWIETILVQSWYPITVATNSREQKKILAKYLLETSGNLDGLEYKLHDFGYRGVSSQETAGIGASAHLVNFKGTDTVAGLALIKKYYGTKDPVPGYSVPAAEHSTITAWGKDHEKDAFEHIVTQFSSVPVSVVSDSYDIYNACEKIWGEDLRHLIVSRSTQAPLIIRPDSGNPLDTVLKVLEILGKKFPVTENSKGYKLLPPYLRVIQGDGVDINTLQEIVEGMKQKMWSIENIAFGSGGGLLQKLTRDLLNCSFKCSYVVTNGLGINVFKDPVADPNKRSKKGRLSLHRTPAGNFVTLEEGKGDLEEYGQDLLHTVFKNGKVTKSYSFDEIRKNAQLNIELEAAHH
Description: binding competition for photo-crosslinking of P7C3-S326 to p70 in H2122 cells. To be noted: 0.3 μM P7C3-S326 plus 5 μM competitor, p70 band intensity, P7C3-S326 alone compared with plus competitor, vehicle 1.0. The procedure:
Cultured cells were co-exposed to P7C3-S326 (0.3 uM) and the individual P7C3 variants (5 uM), exposed to UV light, lysed, clicked to a fluorescent dye and run on SDS gels (FIG. 11).
P7C3-S326 was diluted to 0.3 μM in culture medium to treat H2122 cells. After incubation at 37° C. for 2 hours, H2122 cells were irradiated for 15 minutes under 306 nm ultraviolet light in a Stratalinker 2400 (Stratagene). Cells were then harvested by dissolving in 1% SDS lysis buffer 50 mM HEPES, pH 8.0, 2 mM MgCl2, 10 mM KCl, 1% SDS, 50 units/ml of Benzonase (Sigma), supplemented with Sigmafast protease inhibitor (Sigma).
The reaction was incubated at room temperature with constant agitation at 1,000 rpm on a thermomixer (Eppendorf) for 1 hour. Samples were then mixed with SDS sample loading buffer and loaded on an 8% SDS-PAGE gel, separated, and imaged using a Typhoon imager (filter settings: excitation 533 nm, emission 555 nm, and high sensitivity).
H2122 cells were incubated with the P7C3-S326 (0.3 μM) in the absence or presence of P7C3 analogs for 2 hours following by UV crosslinking. […] The samples were run on SDS-PAGE gels scanned using a Typhoon Imager. The p70 band intensity was analyzed and quantified by Image J, and the relative intensity in each assay was normalized to that of the DMSO control.

Turning to `OC(CNc1cccc2ccccc12)Cn1c2ccc(Cl)cc2c2cc(Cl)ccc21` (stereo not drawn) [S184], the “Neurogenesis # BrdU+ Cells (X10E06)/mm3 Dentate Gyrus” value (shortened to “Neurogenesis # BrdU+ Cells”) in experiment [1] was 6.7 (X10E06)/mm3. Moreover, on p70 (NAMPT), the Binding competition was found to be 2.5.
The like results for `O=C(O)c1cc2c(cn1)[nH]c1ccc(Br)cc12` [S206] were, in that order, 14.8 (X10E06)/mm3 and 1.4.
The like results for `Oc1cccc(SCC(O)CC2c3ccc(Br)cc3-c3cc(Br)ccc32)c1` (stereo not drawn) [S91] were, in that order, 8.2 (X10E06)/mm3 and 3.4.
The like results for `CC(C)(C)OC(=O)CCOCCOCCOCCOc1cccc(NCC(O)Cn2c3ccc(Br)cc3c3cc(Br)ccc32)c1` (stereo not drawn) [S157] were, in that order, 10.2 (X10E06)/mm3 and 1.5.
As to `CCOc1cccc(NCC(O)Cn2c3ccc(Br)cc3c3cc(Br)ccc32)c1` (stereo not drawn) [S24], the “Neurogenesis # BrdU+ Cells” value in experiment [1] is recorded as 8.0 (X10E06)/mm3. The Binding competition on p70 (NAMPT) came out at 3.1.
The like results for `CCOC(=O)c1ncc2c(n1)c1ccccc1n2S(=O)(=O)c1ccc(C)cc1` [S246] were, in that order, 14.5 (X10E06)/mm3 and 1.3.
The corresponding values for `OC(COc1ccccc1)Cn1c2c(c3cc(Br)ccc31)CN(C1CC1)CC2` (stereo not drawn) [S106] are 10.9 (X10E06)/mm3 and 1.4.
The like results for `OC(CN1c2ccccc2CCc2ccccc21)Cn1c2ccccc2c2ccccc21` (stereo not drawn) [S133] were, in that order, 10.1 (X10E06)/mm3 and 1.2.
Take `CN(C)C[C@@H](O)CN1c2ccccc2CCc2ccccc21` [S182]: in experiment [1], the “Neurogenesis # BrdU+ Cells” value is given as 6.8 (X10E06)/mm3. In addition, the Binding competition on p70 (NAMPT) is reported as 1.1.
For `OC(COc1ccccn1)Cn1c2ccc(Br)cc2c2cc(Br)ccc21` (stereo not drawn) [S147], the “Neurogenesis # BrdU+ Cells” value in experiment [1] was 13.3 (X10E06)/mm3. For the same molecule, the Binding competition at p70 (NAMPT) amounted to 3.4.
As to `COc1ccc2[nH]c3ccc(Br)cc3c2c1` [S209], in experiment [1], the “Neurogenesis # BrdU+ Cells” value is listed as 15.0 (X10E06)/mm3. Besides, the Binding competition at p70 (NAMPT) worked out at 3.7.
The corresponding values for `O=C(COc1ccc(SCC(O)Cn2c3ccc(Br)cc3c3cc(Br)ccc32)cc1)NCc1ccccc1` (stereo not drawn) [S99] are 7.6 (X10E06)/mm3 and 2.5.
The like results for `COc1cccc(NCC(O)Cn2c3ccc(C)cc3c3cc(Br)ccc32)c1` (stereo not drawn) [S14] were, in that order, 13.5 (X10E06)/mm3 and 4.5.
The like results for `CNCCCC1c2ccccc2C=Cc2ccccc21.Cl` [S90, Protriptyline, reference compound] were, in that order, 11.1 (X10E06)/mm3 and 1.4.
Consider `OC(Cn1c2ccc(Br)cc2c2cc(Br)ccc21)Cn1c2ccc(Br)cc2c2cc(Br)ccc21` [S34], for which the “Neurogenesis # BrdU+ Cells” value in experiment [1] is recorded as 7.6 (X10E06)/mm3. Also, the Binding competition at p70 (NAMPT) turned out to be 1.0.
The corresponding values for `CCOC(=O)Cn1c2ccc(Br)cc2c2cc(Br)ccc21` [S164] are 7.6 (X10E06)/mm3 and 1.3.
`COc1cccc(NCC(O)CN2c3ccc(Br)cc3CCc3cc(Br)ccc32)c1` (stereo not drawn) [S76]: the “Neurogenesis # BrdU+ Cells” value in experiment [1] is 14.2 (X10E06)/mm3. For the same molecule, the Binding competition on p70 (NAMPT) came to 1.1.
The like results for `O=c1ccccn1CC(O)Cn1c2ccc(Br)cc2c2cc(Br)ccc21` (stereo not drawn) [S137] were, in that order, 12.2 (X10E06)/mm3 and 4.5.
The corresponding values for `O=S(=O)(CC(O)Cn1c2ccc(Br)cc2c2cc(Br)ccc21)c1ccc(OCCF)cc1` (stereo not drawn) [S156] are 15.0 (X10E06)/mm3 and 1.2.
As to `CN1CCc2c(c3cc(Br)ccc3n2CC(O)COc2ccccc2)C1` (stereo not drawn) [S131], the “Neurogenesis # BrdU+ Cells” value in experiment [1] is reported as 7.3 (X10E06)/mm3. Moreover, the Binding competition at p70 (NAMPT) was found to be 3.5.
For the molecule `COc1cccc(NCC(O)CN2c3ccccc3CCc3ccccc32)c1` (stereo not drawn) [S158], the “Neurogenesis # BrdU+ Cells” value in experiment [1] is on record as 12.5 (X10E06)/mm3. Moreover, the Binding competition at p70 (NAMPT) is reported as 1.3.
The like results for `COc1cccc(S(=O)(=O)CC(O)Cn2c3ccc(Br)cc3c3cc(Br)ccc32)c1` (stereo not drawn) [S82] were, in that order, 11.8 (X10E06)/mm3 and 2.3.
The like results for `[O-][n+]1cccc2c1c1cc(Br)ccc1n2CC(O)COc1ccccc1` (stereo not drawn) [S198] were, in that order, 11.0 (X10E06)/mm3 and 5.1.
The corresponding values for `CN(C)CCC=C1c2ccccc2CCc2ccccc21.Cl` [S86, Amitriptyline, reference compound] are 9.7 (X10E06)/mm3 and 1.3.
As for `CN(C)C(=O)COc1ccc(NCC(F)Cn2c3ccc(Br)cc3c3cc(Br)ccc32)cc1` (stereo not drawn) [S70], the “Neurogenesis # BrdU+ Cells” value in experiment [1] is listed as 7.4 (X10E06)/mm3. Besides, the Binding competition at p70 (NAMPT) is 2.5.
Take `CCC(C)N(C)C(=O)c1cc2ccccc2c(-c2ccccc2Cl)n1` (stereo not drawn) [S200, PK11195, reference compound]: the “Neurogenesis # BrdU+ Cells” value in experiment [1] was 11.1 (X10E06)/mm3. The Binding competition at p70 (NAMPT) is 1.3.
The corresponding values for `COc1cccc(N(CC(O)Cn2c3ccc(Br)cc3c3cc(Br)ccc32)C(C)=O)c1` (stereo not drawn) [S9] are 11.9 (X10E06)/mm3 and 2.0.
The corresponding values for `OC(CNc1ncccn1)Cn1c2ccc(Br)cc2c2cc(Br)ccc21` (stereo not drawn) [S8] are 7.8 (X10E06)/mm3 and 4.7.
The corresponding values for `NC(=O)c1ccc2[nH]c3ccc(Br)cc3c2c1` [S223] are 7.9 (X10E06)/mm3 and 3.0.
On to `OC(CNc1ccccc1)Cn1c2ccc(Br)cc2c2cc(Br)ncc21` (stereo not drawn) [S30], for which the “Neurogenesis # BrdU+ Cells” value in experiment [1] is reported as 14.3 (X10E06)/mm3. The Binding competition on p70 (NAMPT) was determined as 3.3.
The corresponding values for `CNC(=O)Cn1c2ccc(Br)cc2c2cc(Br)ccc21` [S214] are 9.9 (X10E06)/mm3 and 1.7.
The like results for `CN(C)c1nc(O)c2[nH]c3ccccc3c2n1` [S245] were, in that order, 16.2 (X10E06)/mm3 and 1.0.
The corresponding values for `O=C(O)Cn1c2ccc(Br)cc2c2cc(C(=O)O)ccc21` [S239] are 11.4 (X10E06)/mm3 and 0.9.
In the case of `COc1cccc(NCC(O)Cn2c3ccc(C#N)cc3c3cc(C#N)ccc32)c1` (stereo not drawn) [S65], in experiment [1], the “Neurogenesis # BrdU+ Cells” value is 12.9 (X10E06)/mm3. The Binding competition at p70 (NAMPT) turned out to be 3.3.
The corresponding values for `Oc1ccc(SCC(O)Cn2c3ccc(Br)cc3c3cc(Br)ccc32)cc1` (stereo not drawn) [S92] are 8.4 (X10E06)/mm3 and 2.5.
With `NC(=O)c1ccc2c(c1)c1cc(Br)ccc1n2CC(O)COc1ccccc1` (stereo not drawn) [S146], the “Neurogenesis # BrdU+ Cells” value in experiment [1] was 14.5 (X10E06)/mm3. The Binding competition at p70 (NAMPT) was found to be 2.8.
Turning to `Cc1cc(Br)cc2c3cc(Br)cc(C)c3n(CC(O)CNc3ccccc3)c12` (stereo not drawn) [S161], the “Neurogenesis # BrdU+ Cells” value in experiment [1] was 11.4 (X10E06)/mm3. The Binding competition on p70 (NAMPT) was found to be 3.1.
The corresponding values for `OC(CSc1ccccc1)CN1c2ccccc2CCc2ccccc21` (stereo not drawn) [S134] are 9.7 (X10E06)/mm3 and 1.9.
The like results for `OC(CNc1ccccc1)Cn1c2ccc(C3CC3)cc2c2cc(C3CC3)ccc21` (stereo not drawn) [S62] were, in that order, 11.8 (X10E06)/mm3 and 1.2.
The like results for `CN(C)CCCN1c2ccccc2Sc2ccc(Cl)cc21` [S121, CPZ, reference compound] were, in that order, 11.1 (X10E06)/mm3 and 2.3.
`OC(COc1ccccc1)Cn1c2ccncc2c2cc(Br)ccc21` (stereo not drawn) [S183]: the “Neurogenesis # BrdU+ Cells” value in experiment [1] is 7.7 (X10E06)/mm3. Also, the Binding competition at p70 (NAMPT) worked out at 4.0.
The corresponding values for `CC(C(N)=O)n1c2ccc(Br)cc2c2cc(Br)ccc21` (stereo not drawn) [S220] are 10.5 (X10E06)/mm3 and 2.9.
